{"source": "paper PMC11358582", "about": "“Discovery of a potential bladder cancer inhibitor CHNQD-01281 by regulating EGFR and promoting infiltration of cytotoxic T cells” (Marine Life Science & Technology, 2024)", "key": {"[1]": {"experiment": "Single-dose safety profile, HE staining of main organs", "type": "in vivo, C57BL/6 mice", "settings": "single dose 100 mg/kg, i.p.", "protocol": "To further investigate the safety profile of CHNQD-01281 in vivo, the HE staining of the heart, liver, spleen, lung, kidney and duodenum of C57 mice were analyzed after the single dose of CHNQD-01281 (100 mg/kg, i.p.). […] The distribution of CHNQD-01281 in tumor and main organs of C57BL/6 mice was then analyzed.\nFig. S14. Safety profile and tissue distribution of CHNQD-01281 in vivo. A Representative H&E staining images (scale bar: 50 μm) of main organs from vehicle and CHNQD-01281 (100 mg/kg, ip.) treated C57BL/6 mice (n = 3). B Bodyweight evaluation of mouse after treatment with vehicle and CHNQD-01281. C Tissue distribution of CHNQD-01281 in C57BL/6 mice (n = 3)."}, "[2]": {"system": "EGFR", "experiment": "Western blot of EGFR expression in T24 cells", "type": "cell-based, human", "settings": "T24, 0.16 µmol/L, versus control", "protocol": "T24 and J82 cell lines were lysed in protein lysis buffer, which included phosphatase inhibitors and a cocktail of protease inhibitors. A BCA kit (SparkJade, China) was used to determine the total protein concentration. After protein denaturation, SDS-PAGE electrophoresis was performed and the protein transferred from the gel to a PVDF membrane (Millipore, USA). Then primary antibodies against cleaved caspases-3, cleaved PARP, AKT, phosphorylated AKT, ERK1/2, phosphorylated ERK1/2, EGFR, mTOR, phosphorylated mTOR and Tubulin (CST, USA) were diluted at 1:1000 at 4 °C overnight. The membranes were then washed and incubated with secondary antibodies dissolved in 5% nonfat milk. A chemiluminescence imaging system was used to detect the signals (Tanon, China).\nEGFR is overexpressed in malignant urothelial cells, which is associated with the deterioration, invasiveness and metastasis of tumors. It is a potential therapeutic target for bladder carcinoma. Therefore, we examined the expression of EGFR and its downstream proteins after treating bladder cancer cells with CHNQD-01281 (Supplementary Fig. S11). […] Taken together, CHNQD-01281 inhibited the proliferation of bladder cancer cells and induced apoptosis through EGFR/PI3K/AKT and EGFR/ERK pathways to exert antitumor effects."}, "[3]": {"system": "T24 cell line", "experiment": "Cell cycle analysis (Muse Cell Analyzer)", "type": "cell-based, human", "protocol": "(§1) T24 and J82 cell lines were seeded in 6-well plates (3 × 10^5 cells/well) and treated with different concentrations of CHNQD-01281 or DMSO. Cells were then harvested, washed with ice-cold PBS, and fixed in 70% cold ethanol overnight at − 20 °C. Fixed cells were then collected, washed, and stained with 200 μL of Muse™ cell cycle reagent for 30 min in the dark at room temperature. The cell cycle distribution was immediately analyzed by Muse Cell Analyzer (Millipore, Billerica, MA, USA).\n(§2) The G1/S transition is a key checkpoint in the cell cycle that regulates DNA replication. As the cell cycle progresses, G1 phase arrest leads to apoptosis or repair mechanisms."}, "[4]": {"system": "J82 cell line", "experiment": "Cell cycle analysis (Muse Cell Analyzer)", "type": "cell-based, human", "protocol": "as §1, §2"}, "[5]": {"system": "human hepatocyte cell line L-02", "experiment": "MTT cell proliferation assay", "type": "cell-based", "settings": "L-02, MTT", "protocol": "Human tumor cell lines Eca-109, BEL-7402, BxPC-3, HCT-116, HT-29, T24, HCT-8, SGC-7901, DLD-1, TE-1, BT-549, MGC-803 and human hepatocyte cell line L-02 were cultured in Roswell Park Memorial Institute (RPMI) 1640. HuH-7 and SW-480 were cultured in Dulbecco’s modified Eagle’s medium (DMEM). J82, HepG2, Hela, U87 were cultured in Minimum Essential Medium (MEM). Murine bladder cancer cell line, MB49, was cultured in DMEM. The above-mentioned culture medium was provided by GIBCO (Grand Island, USA), contained 10% fetal bovine serum (PAN, Germany), 10 mg/mL of streptomycin, and 10 kU/mL penicillin (Beyotime, China).\nCells were seeded in 96-well plates and incubated with indicated concentrations of CHNQD-01281 for indicated periods. Next, medium was discarded and MTT (5 mg/mL) was added to each well. The cells were incubated at 37 °C for another 4 h. After that, supernatant was discarded, and DMSO was added and incubated at 37 °C for 15 min. Finally, absorbance was measured at 570 nm (Molecular Devices, USA).\nThus, the bladder cancer cell lines J82 and T24 were further investigated and treated by CHNQD-01281 under gradient concentrations (0.031−1.00 µmol/L) and times (24, 72 and 120 h) to measure proliferation activities (Fig. 2B). However, the inhibition of T24 or J82 cell lines by CHNQD-01281 was less than 50% even at the highest concentration of 1 µmol/L for 24 h. […] Therefore, CHNQD-01281 has a higher selectivity index compared to BFA."}, "[6]": {"system": "T24 cell line", "experiment": "Cell apoptosis analysis (Annexin V)", "type": "cell-based, human", "settings": "T24, 0.32 µmol/L (control 3.45%)", "protocol": "(§3) T24 and J82 cell lines were seeded in 6-well plates (3 × 10^5 cells/well) and treated with different concentrations of CHNQD-01281 or DMSO. Muse™ Annexin V and Dead Cell assay kit (Muse TM Cell Analyzer, Millipore (catalog no. MCH100105)) was used to determine the cell apoptosis by Muse cell analyzer (Millipore, Billerica, MA, USA).\n(§4) Furthermore, treatment with CHNQD-01281 induced a dose-dependent increase in the total apoptosis of T24 and J82 cell lines. […] Meanwhile, the expression of apoptosis-related proteins cleaved PARP and cleaved caspase-3 were detected by Western blot. […] Therefore, CHNQD-01281 can induce DNA damage to arrest the cell cycle at the G0/G1 phase, affect the expression of DNA damage repair enzyme PARP, and finally induce apoptosis of bladder cancer cell lines."}, "[7]": {"system": "J82 cell line", "experiment": "Cell apoptosis analysis (Annexin V)", "type": "cell-based, human", "settings": "J82, 0.32 µmol/L (control 4.15%)", "protocol": "as §3, §4"}}}
{"smiles": "C[C@H]1CCC/C=C/[C@@H]2C[C@H](O)C[C@H]2[C@H](OC(=O)/C=C/c2cccnc2)/C=C/C(=O)O1", "note": "[CHNQD-01281, Brefeldin A 4-O-3-(pyridin-3-yl) acrylate]", "values": [{"measurement": "HE staining of heart, liver, spleen, lung, kidney and duodenum", "setting": "[1]", "result": "no obvious abnormalities in cell and tissue morphology"}, {"measurement": "maximum down-regulation of EGFR expression", "setting": "[2]", "result": 77.61, "unit": "%"}, {"measurement": "proportion of cells in S phase", "setting": "[3]; T24, 0.04 µmol/L (control 20.5%)", "result": 18.9, "unit": "%"}, {"measurement": "G0/G1 cells", "setting": "[3]; T24, 0.04 µmol/L (control 61.4%)", "result": 65.0, "unit": "%"}, {"measurement": "proportion of cells in S phase", "setting": "[3]; T24, 0.08 µmol/L (control 20.5%)", "result": 13.5, "unit": "%"}, {"measurement": "G0/G1 cells", "setting": "[3]; T24, 0.08 µmol/L (control 61.4%)", "result": 75.2, "unit": "%"}, {"measurement": "proportion of cells in S phase", "setting": "[3]; T24, 0.16 µmol/L (control 20.5%)", "result": 11.4, "unit": "%"}, {"measurement": "G0/G1 cells", "setting": "[3]; T24, 0.16 µmol/L (control 61.4%)", "result": 80.6, "unit": "%"}, {"measurement": "proportion of cells in S phase", "setting": "[4]; J82, 0.04 µmol/L (control 27.5%)", "result": 26.0, "unit": "%"}, {"measurement": "G0/G1 cells", "setting": "[4]; J82, 0.04 µmol/L (control 53.1%)", "result": 60.3, "unit": "%"}, {"measurement": "proportion of cells in S phase", "setting": "[4]; J82, 0.08 µmol/L (control 27.5%)", "result": 22.1, "unit": "%"}, {"measurement": "G0/G1 cells", "setting": "[4]; J82, 0.08 µmol/L (control 53.1%)", "result": 66.3, "unit": "%"}, {"measurement": "proportion of cells in S phase", "setting": "[4]; J82, 0.16 µmol/L (control 27.5%)", "result": 18.2, "unit": "%"}, {"measurement": "G0/G1 cells", "setting": "[4]; J82, 0.16 µmol/L (control 53.1%)", "result": 73.6, "unit": "%"}, {"measurement": "IC90", "setting": "[5]", "result": 2.52, "unit": "µM"}, {"measurement": "IC50", "setting": "[5]; 72 h", "result": 1.16, "unit": "µM"}, {"measurement": "total apoptotic cells", "setting": "[6]", "result": 27.8, "unit": "%"}, {"measurement": "total apoptotic cells", "setting": "[7]", "result": 27.9, "unit": "%"}]}
